Patent publication US8604217B2, “Compound, a process for its preparation, a pharmaceutical composition, use of a compound, a method for modulating or regulating serine/threonine kinases and a serine/threonine kinases modulating agent” (Selvita S.A., priority 2009, dated 2013)

Tests used:
Assay in all cases: KinaseProfiler kinase panel
AMPKα2(h) = AMPKα2(h) (Homo sapiens (Human), UniProt P54646); assay type: biochemical
Lyn(m) = Lyn(m) (Mus musculus (Mouse), UniProt P25911); assay type: biochemical
Sequence of Lyn(m) (P25911 whole entry): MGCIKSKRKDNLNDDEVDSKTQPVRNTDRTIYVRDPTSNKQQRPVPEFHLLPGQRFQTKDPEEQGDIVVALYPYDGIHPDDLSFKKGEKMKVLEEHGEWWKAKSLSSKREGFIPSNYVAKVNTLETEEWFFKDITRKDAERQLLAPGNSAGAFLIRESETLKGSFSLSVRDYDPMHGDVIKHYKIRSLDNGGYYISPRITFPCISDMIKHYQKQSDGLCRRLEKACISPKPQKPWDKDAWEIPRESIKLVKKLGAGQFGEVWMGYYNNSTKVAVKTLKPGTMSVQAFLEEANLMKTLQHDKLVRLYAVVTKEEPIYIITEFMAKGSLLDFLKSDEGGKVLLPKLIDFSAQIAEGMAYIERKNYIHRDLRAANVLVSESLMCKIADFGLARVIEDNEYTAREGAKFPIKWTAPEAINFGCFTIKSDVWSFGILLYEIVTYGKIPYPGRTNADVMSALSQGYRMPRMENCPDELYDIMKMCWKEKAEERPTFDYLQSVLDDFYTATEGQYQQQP

CDK2/cyclinA(h) = CDK2/cyclinA(h) (Homo sapiens (Human), UniProt P24941); assay type: biochemical
Src(1-530)(h) = Src(1-530)(h) (Homo sapiens (Human), UniProt P12931); assay type: biochemical
CHK1(h) = CHK1(h) (Homo sapiens (Human), UniProt O14757); assay type: biochemical
GSK3α(h) = GSK3α(h) (Homo sapiens (Human), UniProt P49840); assay type: biochemical
PKCε(h) = PKCε(h) (Homo sapiens (Human), UniProt Q02156); assay type: biochemical
MSK1(h) = MSK1(h) (Homo sapiens (Human), UniProt O75582); assay type: biochemical
Sequence of MSK1(h) (O75582 whole entry): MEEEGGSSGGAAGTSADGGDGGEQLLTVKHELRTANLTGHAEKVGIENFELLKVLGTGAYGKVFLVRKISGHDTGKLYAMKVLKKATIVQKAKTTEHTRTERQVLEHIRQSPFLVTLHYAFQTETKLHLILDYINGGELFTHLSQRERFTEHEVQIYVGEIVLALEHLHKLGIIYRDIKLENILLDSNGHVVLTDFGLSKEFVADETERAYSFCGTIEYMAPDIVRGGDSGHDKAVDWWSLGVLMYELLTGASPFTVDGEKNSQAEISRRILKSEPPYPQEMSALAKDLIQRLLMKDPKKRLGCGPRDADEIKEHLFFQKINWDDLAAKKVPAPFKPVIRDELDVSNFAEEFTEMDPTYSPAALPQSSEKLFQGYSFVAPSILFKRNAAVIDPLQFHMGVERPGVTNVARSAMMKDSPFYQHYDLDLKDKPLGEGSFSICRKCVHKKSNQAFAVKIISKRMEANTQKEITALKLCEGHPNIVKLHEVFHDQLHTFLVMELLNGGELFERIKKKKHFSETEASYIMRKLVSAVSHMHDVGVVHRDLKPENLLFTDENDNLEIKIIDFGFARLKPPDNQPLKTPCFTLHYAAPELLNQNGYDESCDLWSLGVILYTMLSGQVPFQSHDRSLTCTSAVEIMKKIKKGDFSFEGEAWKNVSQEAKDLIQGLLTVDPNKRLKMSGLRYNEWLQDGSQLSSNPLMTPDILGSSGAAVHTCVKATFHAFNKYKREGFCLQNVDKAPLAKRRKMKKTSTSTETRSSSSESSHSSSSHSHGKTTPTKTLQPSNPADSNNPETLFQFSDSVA

SAPK4(h) = SAPK4(h) (Homo sapiens (Human), UniProt O15264); assay type: biochemical
MST2(h) = MST2(h) (Homo sapiens (Human), UniProt Q13188); assay type: biochemical
WNK2(h) = WNK2(h) (Homo sapiens (Human), UniProt Q9Y3S1); assay type: biochemical
IGF-1R(h) = IGF-1R(h) (Homo sapiens (Human), UniProt P08069); assay type: biochemical
PKCθ(h) = PKCθ(h) (Homo sapiens (Human), UniProt Q04759); assay type: biochemical
LKB1(h) = LKB1(h) (Homo sapiens (Human), UniProt Q15831); assay type: biochemical
PDGFRβ(h) = PDGFRβ(h) (Homo sapiens (Human), UniProt P09619); assay type: biochemical
Met(h) = Met(h) (Homo sapiens (Human), UniProt P08581); assay type: biochemical
CSK(h) = CSK(h) (Homo sapiens (Human), UniProt P41240); assay type: biochemical
Sequence of CSK(h) (P41240 whole entry): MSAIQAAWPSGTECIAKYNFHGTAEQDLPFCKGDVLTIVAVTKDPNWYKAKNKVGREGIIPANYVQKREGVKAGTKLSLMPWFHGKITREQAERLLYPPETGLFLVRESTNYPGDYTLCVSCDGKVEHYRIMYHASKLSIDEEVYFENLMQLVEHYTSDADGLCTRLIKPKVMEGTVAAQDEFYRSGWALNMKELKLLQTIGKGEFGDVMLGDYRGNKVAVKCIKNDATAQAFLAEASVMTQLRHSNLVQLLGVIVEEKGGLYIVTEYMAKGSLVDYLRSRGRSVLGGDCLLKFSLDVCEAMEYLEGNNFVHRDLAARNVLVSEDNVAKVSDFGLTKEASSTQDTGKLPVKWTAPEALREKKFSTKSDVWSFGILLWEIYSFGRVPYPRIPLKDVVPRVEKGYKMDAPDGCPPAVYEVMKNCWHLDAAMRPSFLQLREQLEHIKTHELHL

AMPKα1(h) = AMPKα1(h) (Homo sapiens (Human), UniProt Q13131); assay type: biochemical
TSSK1(h) = TSSK1(h) (Homo sapiens (Human), UniProt Q9BXA7); assay type: biochemical
Sequence of TSSK1(h) (Q9BXA7 whole entry): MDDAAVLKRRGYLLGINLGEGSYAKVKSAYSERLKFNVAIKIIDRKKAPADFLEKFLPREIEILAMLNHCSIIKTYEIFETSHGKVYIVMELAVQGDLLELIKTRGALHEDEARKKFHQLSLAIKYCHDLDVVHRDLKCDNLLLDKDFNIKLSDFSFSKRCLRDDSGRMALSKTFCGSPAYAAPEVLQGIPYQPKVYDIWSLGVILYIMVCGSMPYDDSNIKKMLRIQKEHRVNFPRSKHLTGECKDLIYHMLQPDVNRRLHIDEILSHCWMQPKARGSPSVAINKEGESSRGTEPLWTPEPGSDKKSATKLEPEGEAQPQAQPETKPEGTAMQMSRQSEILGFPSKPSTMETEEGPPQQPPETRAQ

NEK6(h) = NEK6(h) (Homo sapiens (Human), UniProt Q9HC98); assay type: biochemical
PKCα(h) = PKCα(h) (Homo sapiens (Human), UniProt P17252); assay type: biochemical
TAO2(h) = TAO2(h) (Homo sapiens (Human), UniProt Q9UL54); assay type: biochemical
GRK7(h) = GRK7(h) (Homo sapiens (Human), UniProt Q8WTQ7); assay type: biochemical
Ron(h) = Ron(h) (Homo sapiens (Human), UniProt Q04912); assay type: biochemical
Sequence of Ron(h) (Q04912 25-1400): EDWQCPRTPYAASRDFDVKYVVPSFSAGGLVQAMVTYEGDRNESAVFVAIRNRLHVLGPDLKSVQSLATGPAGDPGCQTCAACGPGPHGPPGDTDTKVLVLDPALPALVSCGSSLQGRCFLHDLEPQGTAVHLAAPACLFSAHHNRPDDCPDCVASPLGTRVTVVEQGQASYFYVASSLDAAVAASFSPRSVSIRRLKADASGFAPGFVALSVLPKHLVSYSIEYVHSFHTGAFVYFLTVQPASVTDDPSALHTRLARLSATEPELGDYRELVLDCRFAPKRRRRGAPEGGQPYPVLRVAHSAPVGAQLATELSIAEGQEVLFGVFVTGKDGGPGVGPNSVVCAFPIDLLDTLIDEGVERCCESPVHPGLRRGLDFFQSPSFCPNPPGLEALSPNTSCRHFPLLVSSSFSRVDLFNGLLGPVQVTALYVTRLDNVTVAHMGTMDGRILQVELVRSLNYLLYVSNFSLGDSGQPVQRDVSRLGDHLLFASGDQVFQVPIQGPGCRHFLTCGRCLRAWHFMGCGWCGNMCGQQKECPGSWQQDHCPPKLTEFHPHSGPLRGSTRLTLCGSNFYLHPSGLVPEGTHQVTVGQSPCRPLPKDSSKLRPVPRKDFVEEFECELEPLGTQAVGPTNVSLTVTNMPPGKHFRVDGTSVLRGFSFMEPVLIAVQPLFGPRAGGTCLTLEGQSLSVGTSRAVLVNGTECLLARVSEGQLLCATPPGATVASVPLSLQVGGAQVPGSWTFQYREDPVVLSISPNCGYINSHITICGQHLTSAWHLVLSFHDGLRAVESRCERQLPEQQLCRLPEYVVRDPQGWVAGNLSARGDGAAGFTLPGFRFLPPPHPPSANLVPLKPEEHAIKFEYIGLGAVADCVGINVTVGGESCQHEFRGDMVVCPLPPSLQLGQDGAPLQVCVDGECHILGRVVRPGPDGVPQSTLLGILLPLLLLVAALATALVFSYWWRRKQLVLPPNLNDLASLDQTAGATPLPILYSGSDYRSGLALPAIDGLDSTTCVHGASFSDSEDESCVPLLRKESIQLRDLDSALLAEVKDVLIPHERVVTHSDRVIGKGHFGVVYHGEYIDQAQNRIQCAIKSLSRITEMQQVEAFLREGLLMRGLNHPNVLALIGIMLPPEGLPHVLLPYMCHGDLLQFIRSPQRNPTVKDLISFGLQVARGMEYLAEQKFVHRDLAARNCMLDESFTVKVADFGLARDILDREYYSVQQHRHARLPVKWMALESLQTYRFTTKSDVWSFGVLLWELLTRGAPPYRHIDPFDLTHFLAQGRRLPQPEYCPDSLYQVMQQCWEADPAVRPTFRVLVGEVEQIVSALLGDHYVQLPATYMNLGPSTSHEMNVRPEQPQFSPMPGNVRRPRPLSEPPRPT

TSSK2(h) = TSSK2(h) (Homo sapiens (Human), UniProt Q96PF2); assay type: biochemical
Sequence of TSSK2(h) (Q96PF2 whole entry): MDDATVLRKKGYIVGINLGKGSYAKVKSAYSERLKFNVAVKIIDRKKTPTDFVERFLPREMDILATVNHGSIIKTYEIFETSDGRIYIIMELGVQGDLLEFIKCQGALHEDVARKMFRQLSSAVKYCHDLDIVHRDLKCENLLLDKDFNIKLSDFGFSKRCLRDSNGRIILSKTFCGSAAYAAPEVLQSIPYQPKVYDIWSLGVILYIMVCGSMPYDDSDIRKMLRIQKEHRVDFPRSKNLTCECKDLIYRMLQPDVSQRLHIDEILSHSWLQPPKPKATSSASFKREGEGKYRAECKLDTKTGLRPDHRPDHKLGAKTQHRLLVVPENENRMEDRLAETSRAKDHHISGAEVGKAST

PKCβI(h) = PKCβI(h) (Homo sapiens (Human), UniProt P05771); assay type: biochemical
GRK6(h) = GRK6(h) (Homo sapiens (Human), UniProt P43250); assay type: biochemical
KDR(h) = KDR(h) (Homo sapiens (Human), UniProt P35968); assay type: biochemical
PKCδ(h) = PKCδ(h) (Homo sapiens (Human), UniProt Q05655); assay type: biochemical
MAPKAP-K3(h) = MAPKAP-K3(h) (Homo sapiens (Human), UniProt Q16644); assay type: biochemical
PAK2(h) = PAK2(h) (Homo sapiens (Human), UniProt Q13177); assay type: biochemical
CDK5/p35(h) = CDK5/p35(h) (Homo sapiens (Human), UniProt Q00535); assay type: biochemical
Lyn(h) = Lyn(h) (Homo sapiens (Human), UniProt P07948); assay type: biochemical
PRAK(h) = PRAK(h) (Homo sapiens (Human), UniProt Q8IW41); assay type: biochemical
Sequence of PRAK(h) (Q8IW41 whole entry): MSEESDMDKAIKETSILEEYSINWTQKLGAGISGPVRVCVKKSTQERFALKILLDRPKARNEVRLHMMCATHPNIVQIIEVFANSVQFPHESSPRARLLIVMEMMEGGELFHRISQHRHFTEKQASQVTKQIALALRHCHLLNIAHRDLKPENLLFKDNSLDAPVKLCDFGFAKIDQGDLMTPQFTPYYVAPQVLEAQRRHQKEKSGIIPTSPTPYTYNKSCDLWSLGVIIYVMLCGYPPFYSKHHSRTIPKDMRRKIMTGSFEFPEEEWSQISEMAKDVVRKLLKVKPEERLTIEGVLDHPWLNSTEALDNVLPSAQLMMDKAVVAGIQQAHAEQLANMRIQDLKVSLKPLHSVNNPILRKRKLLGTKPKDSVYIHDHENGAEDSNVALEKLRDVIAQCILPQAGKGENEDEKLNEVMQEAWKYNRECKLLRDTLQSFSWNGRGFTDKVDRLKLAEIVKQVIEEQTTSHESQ

CLK3(h) = CLK3(h) (Homo sapiens (Human), UniProt P49761); assay type: biochemical
HIPK2(h) = HIPK2(h) (Homo sapiens (Human), UniProt Q9H2X6); assay type: biochemical
Mer(h) = Mer(h) (Homo sapiens (Human), UniProt Q12866); assay type: biochemical
MLCK(h) = assay type: biochemical, human; conditions: 1 μM
Bmx(h) = Bmx(h) (Homo sapiens (Human), UniProt P51813); assay type: biochemical
GSK3β(h) = GSK3β(h) (Homo sapiens (Human), UniProt P49841); assay type: biochemical
CaMKI(h) = CaMKI(h) (Homo sapiens (Human), UniProt Q14012); assay type: biochemical

CCn1c(N2CCNCC2)nc2c(Br)c(Br)c(Br)c(Br)c21 [Compound 416, 4,5,6,7-tetrabromo-1-ethyl-2-(piperazin-1-yl)-1H-benzo[d]imidazole]
remaining activity at 1 µM (AMPKα2(h)): 67%
remaining activity at 1 µM (Lyn(m)): 73%
remaining activity at 1 µM (CDK2/cyclinA(h)): 7%
remaining activity at 1 µM (Src(1-530)(h)): 65%
remaining activity at 1 µM (CHK1(h)): 113%
remaining activity at 1 µM (GSK3α(h)): 60%
remaining activity at 1 µM (PKCε(h)): 104%
remaining activity at 1 µM (MSK1(h)): 54%
remaining activity at 1 µM (SAPK4(h)): 51%
remaining activity at 1 µM (MST2(h)): 93%
remaining activity at 1 µM (WNK2(h)): 102%
remaining activity at 1 µM (IGF-1R(h)): 75%
remaining activity at 1 µM (PKCθ(h)): 26%
remaining activity at 1 µM (LKB1(h)): 86%
remaining activity at 1 µM (PDGFRβ(h)): 102%
remaining activity at 1 µM (Met(h)): 81%
remaining activity at 1 µM (CSK(h)): 91%
remaining activity at 1 µM (AMPKα1(h)): 82%
remaining activity at 1 µM (TSSK1(h)): 96%
remaining activity at 1 µM (NEK6(h)): 97%
remaining activity at 1 µM (PKCα(h)): 95%
remaining activity at 1 µM (TAO2(h)): 82%
remaining activity at 1 µM (GRK7(h)): 93%
remaining activity at 1 µM (Ron(h)): 108%
remaining activity at 1 µM (TSSK2(h)): 95%
remaining activity at 1 µM (PKCβI(h)): 102%
remaining activity at 1 µM (GRK6(h)): 91%
remaining activity at 1 µM (KDR(h)): 28%
remaining activity at 1 µM (PKCδ(h)): 89%
remaining activity at 1 µM (MAPKAP-K3(h)): 106%
remaining activity at 1 µM (PAK2(h)): 95%
remaining activity at 1 µM (CDK5/p35(h)): 2%
remaining activity at 1 µM (Lyn(h)): 65%
remaining activity at 1 µM (PRAK(h)): 91%
remaining activity at 1 µM (CLK3(h)): 82%
remaining activity at 1 µM (HIPK2(h)): 1%
remaining activity at 1 µM (Mer(h)): 14%
% remaining activity (MLCK(h)): 88%
remaining activity at 1 µM (Bmx(h)): 94%
remaining activity at 1 µM (GSK3β(h)): 66%
remaining activity at 1 µM (CaMKI(h)): 89%
